The results in this text go back to patent US10435361B2, “Kinase inhibitors” (Topivert Pharma Limited, priority 2013, dated 2019).

In this test the test system is PBMCs. Put plainly: LPS-induced TNFα/IL-8 release in PBMC cells. It counts as cell-based. The conditions noted are these: Homo sapiens, assay (b), read-out: IC50 Values for Inhibition of Cytokine Release PBMCs IL-8. As to the method:
Peripheral blood mononuclear cells (PBMCs) from healthy subjects are separated from whole blood using a density gradient (Lymphoprep, Axis-Shield Healthcare). The PBMCs are seeded in 96 well plates and treated with compounds at the desired concentration for 2 hours before addition of 1 ng/mL LPS (Escherichia Coli 0111:B4 from Sigma Aldrich) for 24 hours under normal tissue culture conditions (37° C., 5% CO2). The supernatant is harvested for determination of IL-8 and TNFα concentrations by sandwich ELISA (Duo-set, R&D systems) and read on the fluorescence microplate reader (Varioskan® Flash, ThermoFisher Scientific).

In general, IC50 refers to the point on the concentration scale where inhibition reaches its midpoint. For `COCCOCCOCCOc1cc(Nc2nccc(Oc3ccc(NC(=O)Nc4cc(C(C)(C)C)cc5nc(C)oc45)c4ccccc34)n2)cc(OC)c1` [Example 64, 1-(5-(tert-Butyl)-2-methylbenzo[d]oxazol-7-yl)-3-(4-((2-((3-methoxy-5-(2-(2-(2-methoxy-ethoxy)ethoxy)ethoxy)phenyl)amino)pyrimidin-4-yl)oxy)naphthalen-1-yl)urea], the IC50 was 10.5 nM.
The same measure for `C#Cc1cc(Nc2nccc(Oc3ccc(NC(=O)Nc4cc(C(C)(C)C)cc(C(=O)NC)c4OC)c4ccccc34)n2)cc(C(=O)NCCN2CCOCC2)c1` [Example 9, 5-(tert-Butyl)-3-(3-(4-((2-((3-ethynyl-5-((2-morpholinoethyl)carbamoyl)phenyl)amino)-pyrimidin-4-yl)oxy)naphthalen-1-yl)ureido)-2-methoxy-N-methylbenzamide]: 1.2 nM; for `COc1cc(Nc2cc(Oc3ccc(NC(=O)Nc4cc(C(C)(C)C)cc(NS(C)(=O)=O)c4OC)c4ccccc34)ccn2)cc(C(=O)NCCN2CCNCC2)c1` [85(q), 3-[[4-[[4-[[5-tert-Butyl-3-(methanesulfonamido)-2-methoxyphenyl]-carbamoylamino]-1-naphthyl]oxy]-2-pyridyl]amino]-5-methoxy-N-(2-piperazin-1-ylethyl)benzamide]: 6.1 nM.
Turning to `COCCOCCOCCOc1cc(Nc2nccc(Oc3ccc(NC(=O)Nc4cc(C(C)(C)C)cc(C(=O)N(C)C)c4OC)c4ccccc34)n2)cc(OC)c1` [Example 19, 5-(tert-Butyl)-2-methoxy-3-(3-(4-((2-((3-methoxy-5-(2-(2-(2-methoxyethoxy)ethoxy)-ethoxy)phenyl)amino)pyrimidin-4-yl)oxy)naphthalen-1-yl)ureido)-N,N-dimethylbenzamide], the IC50 stood at 8.7 nM.
The same measure for `COc1c(NC(=O)Nc2ccc(Oc3ccnc(Nc4ccccc4)c3)c3ccccc23)cc(C(C)(C)C)cc1C(=O)N[C@@H]1CCOC1` [84(c), 3-[[4-[(2-Anilino-4-pyridyl)oxy]-1-naphthyl]carbamoylamino]-5-tert-butyl-2-methoxy-N-[(3R)-tetrahydrofuran-3-yl]benzamide]: 21.8 nM; for `COc1cc(Nc2nccc(Oc3ccc(NC(=O)Nc4cc(C(C)(C)C)cc(NS(C)(=O)=O)c4OC)c4ccccc34)n2)cc(OCCOCCOCCC(=O)O)c1` [Example 30, 3-(2-(2-(3-((4-((4-(3-(5-(tert-Butyl)-2-methoxy-3-(methylsulfonamido)phenyl)ureido)-naphthalen-1-yl)oxy)pyrimidin-2-yl)amino)-5-methoxyphenoxy)ethoxy)ethoxy)propanoic acid]: 5.7 nM; for `COCCOCCOCCOc1cc(Nc2nccc(Oc3ccc(NC(=O)Nc4cc(C(C)(C)C)cc5[nH]c(=O)oc45)c4ccccc34)n2)cc(OC)c1` [Example 63, 1-(5-(tert-Butyl)-2-oxo-2,3-dihydrobenzo[d]oxazol-7-yl)-3-(4-((2-((3-methoxy-5-(2-(2-(2-methoxyethoxy)ethoxy)ethoxy)phenyl)amino)pyrimidin-4-yl)oxy)naphthalen-1-yl)urea]: 17.3 nM.
In the case of `COCCOCCOCCOCCOCCOCCOCCNC(=O)c1cc(Nc2nccc(Oc3ccc(NC(=O)Nc4cc(C(C)(C)C)cc(NS(C)(=O)=O)c4OC)c4ccccc34)n2)cc(OC)c1` [Example 40, 3-((4-((4-(3-(5-(tert-Butyl)-2-methoxy-3-(methylsulfonamido)phenyl)ureido)naphthalen-1-yl)oxy)pyrimidin-2-yl)amino)-N-(2,5,8,11,14,17,20-heptaoxadocosan-22-yl)-5-methoxy-benzamide], the IC50 came to 3.1 nM.
Regarding `COCCOCCOCCOc1cc(Nc2nccc(Oc3ccc(NC(=O)Nc4cc(C(C)(C)C)cc(C(=O)NC(C)C)c4OC)c4ccccc34)n2)cc(OC)c1` [Example 42, 5-(tert-Butyl)-N-isopropyl-2-methoxy-3-(3-(4-((2-((3-methoxy-5-(2-(2-(2-methoxyethoxy)-ethoxy)ethoxy)phenyl)amino)pyrimidin-4-yl)ox)naphthalen-1-yl)ureido)benzamide], the IC50 came out at 6.6 nM.
With `COc1cc(Nc2nccc(Oc3ccc(NC(=O)Nc4cc(C(C)(C)C)cc(NS(C)(=O)=O)c4OC)c4ccccc34)n2)cc(C(=O)NCCOCCOCCC(=O)O)c1` [Example 26, 3-(2-(2-(3-((4-((4-(3-(5-(tert-Butyl)-2-methoxy-3-(methylsulfonamido)phenyl)ureido)-naphthalen-1-yl)oxy)pyrimidin-2-yl)amino)-5-methoxybenzamido)ethoxy)ethoxy)-propanoic acid], the IC50 was 21.7 nM.
To `COc1c(NC(=O)Nc2ccc(Oc3ccnc(Nc4ccccc4)c3)c3ccccc23)cc(C(C)(C)C)cc1NS(=O)(=O)N1CCOCC1` [83(f), N-(5-(tert-butyl)-2-methoxy-3-(3-(4-((2-(phenylamino)pyridin-4-yl)oxy)naphthalen-1-yl)ureido)phenyl)morpholine-4-sulfonamide] belongs 13.1 nM; to `COc1cc(Nc2cc(Oc3ccc(NC(=O)Nc4cc(C(C)(C)C)cc(NS(C)(=O)=O)c4OC)c4ccccc34)ccn2)cc(OCCOCCOCCO)c1` [84(e), 1-[5-tert-Butyl-3-(methanesulfonamido)-2-methoxy-phenyl]-3-[4-[[2-[3-[2-[2-(2-hydroxyethoxy)ethoxy]ethoxy]-5-methoxy-anilino]-4-pyridyl]oxy]-1-naphthyl]urea], 1.3 nM; to `COc1cc(Nc2cc(Oc3ccc(NC(=O)Nc4cc(C(C)(C)C)cc(NS(C)(=O)=O)c4OC)c4ccccc34)ccn2)cc(C(=O)NCCN2CCSCC2)c1` [85(i), 3-[[4-[[4-[[5-tert-Butyl-3-(methanesulfonamido)-2-methoxyphenyl]-carbamoylamino]-1-naphthyl]oxy]-2-pyridyl]amino]-5-methoxy-N-(2-thiomorpholinoethyl)-benzamide], 1.5 nM.
To `COc1c(NC(=O)Nc2ccc(Oc3ccnc(Nc4ccccc4)c3)c3ccccc23)cc(C(C)(C)C)cc1C(=O)NC1CCOCC1` [84(a), 3-[[4-[(2-Anilino-4-pyridyl)oxy]-1-naphthyl]carbamoylamino]-5-tert-butyl-2-methoxy-N-tetrahydropyran-4-yl-benzamide] belongs 12.4 nM; to `COCCOCCOCCOc1cc(Nc2nccc(Oc3ccc(NC(=O)Nc4cc(C(C)(C)C)cc(C(=O)O)c4OC)c4ccccc34)n2)cc(OC)c1` [Example 21, 5-(tert-Butyl)-2-methoxy-3-(3-(4-((2-((3-methoxy-5-(2-(2-(2-methoxyethoxy)ethoxy)-ethoxy)phenyl)amino)pyrimidin-4-yl)oxy)naphthalen-1-yl)ureido)benzoic acid], 34.4 nM; to `COCCOCCOCCOc1cc(Nc2nccc(Oc3ccc(NC(=O)Nc4cc(C(C)(C)C)cc(Nc5ncccn5)c4OC)c4ccccc34)n2)cc(OC)c1` [Example 28, 1-(5-(tert-Butyl)-2-methoxy-3-(pyrimidin-2-ylamino)phenyl)-3-(4-((2-((3-methoxy-5-(2-(2-(2-methoxyethoxy)ethoxy)ethoxy)phenyl)amino)pyrimidin-4-yl)oxy)naphthalen-1-yl)urea], 11.9 nM.
As for `C#Cc1cc(Nc2nccc(Oc3ccc(NC(=O)Nc4cc(C(C)(C)C)cc(C(=O)NC)c4OC)c4ccccc34)n2)cc(C(=O)N[C@H](C)CN2CCOCC2)c1` [Example 61, (R)-5-(tert-Butyl)-3-(3-(4-((2-((3-ethynyl-5-((1-morpholinopropan-2-yl)carbamoyl)phenyl)amino)pyrimidin-4-yl)oxy)naphthalen-1-yl)ureido)-2-methoxy-N-methylbenzamide], the IC50 turned out to be 2.1 nM.
Turning to `COCCOCCOCCOc1cc(Nc2cc(Oc3ccc(NC(=O)Nc4cc(C(C)(C)C)cc(C(=O)NCCN)c4OC)c4ccccc34)ccn2)cc(OC)c1` [83(g), N-(2-aminoethyl)-5-(tert-butyl)-2-methoxy-3-(3-(4-((2-((3-methoxy-5-(2-(2-(2-methoxy-ethoxy)ethoxy)ethoxy)phenyl)amino)pyridin-4-yl)oxy)naphthalen-1-yl)ureido)benzamide], the IC50 amounted to 7.3 nM.
On to `COc1c(NC(=O)Nc2ccc(Oc3ccnc(Nc4ccccc4)c3)c(F)c2F)cc(C(C)(C)C)cc1C(=O)NC1COC1` [Example 82, 5-(tert-Butyl)-3-(3-(2,3-difluoro-4-((2-(phenylamino)pyridin-4-yl)oxy)phenyl)ureido)-2-methoxy-N-(oxetan-3-yl)benzamide], for which the IC50 turned out to be 6.6 nM.
As for `COc1cc(Nc2nccc(Oc3ccc(NC(=O)Nc4cc(C(C)(C)C)cc(NS(C)(=O)=O)c4OC)c4ccccc34)n2)cc(C(=O)C2CC2)c1` [Example 50, N-(5-(tert-Butyl)-3-(3-(4-((2-((3-(cyclopropanecarbonyl)-5-methoxyphenyl)amino)-pyrimidin-4-yl)oxy)naphthalen-1-yl)ureido)-2-methoxyphenyl)methanesulfonamide], the IC50 is 12.1 nM.
To `COCCOCCOCCOc1cc(Nc2nccc(Oc3ccc(NC(=O)Nc4cc(C(C)(C)C)cc(C(=O)NC5CC5)c4OC)c4ccccc34)n2)cc(OC)c1` [Example 33, 5-(tert-Butyl)-N-cyclopropyl-2-methoxy-3-(3-(4-((2-((3-methoxy-5-(2-(2-(2-methoxy-ethoxy)ethoxy)ethoxy)phenyl)amino)pyrimidin-4-yl)oxy)naphthalen-1-yl)ureido)-benzamide] belongs 4.2 nM; to `COc1cc(Nc2cc(Oc3ccc(NC(=O)Nc4cc(C(C)(C)C)cc(NS(C)(=O)=O)c4OC)c4ccccc34)ccn2)cc(C(=O)NCCOCCOCCO)c1` [85(r), 3-[[4-[[4-[[5-tert-Butyl-3-(methanesulfonamido)-2-methoxyphenyl]-carbamoylamino]-1-naphthyl]oxy]-2-pyridyl]amino]-N-[2-[2-(2-hydroxyethoxy)ethoxy]-ethyl]-5-methoxy-benzamide], 0.6 nM.
